The values that follow come from patent publication US9266834B2, “1, 4-disubstituted 3-cyano-pyridone derivatives and their use as positive allosteric modulators of MGLUR2-receptors” (JANSSEN PHARMACEUTICALS, INC., priority 2006, dated 2016).

SMILES strings stand for the structures.

Data set [1] has as its target T1, human mGluR2 receptor (Homo sapiens, UniProt Q14416).
T1 construct: expressed in transfected cells; host or cells: CHO cells (membrane preparation)
Briefly: [35S]GTPγS binding assay (GTPγS-PAM): positive allosteric modulation in presence of glutamate at EC25, membranes from transfected CHO cells. In kind it is biochemical. To be noted: in presence of mGluR2 agonist glutamate at predetermined EC25 concentration, averages of duplicate values of 11-concentration response curves; for EC50: read-out: GTPgS - hR2 PAM pEC50 (converted). Summed up: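 Membranes came from butyrate-stimulated CHO cells expressing human mGluR2, used at 15 μg/well in HEPES pH 7.4 with 100 mM NaCl, 3 mM MgCl2, 50 μM GDP and saponin. Compound (0.3 nM-50 μM, 11 concentrations) plus glutamate at EC25 was preincubated 30 min at 30° C., then 0.1 nM [35S]GTPγS was added for 30 min. Filter-bound radioactivity was counted, nonspecific binding was taken with 10 μM GTP, and curves were fitted by four-parameter logistic.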
Background: GTPγS is a poorly hydrolysed GTP analogue; its binding reports G protein activation.

T1 sequence (Q14416 19-872): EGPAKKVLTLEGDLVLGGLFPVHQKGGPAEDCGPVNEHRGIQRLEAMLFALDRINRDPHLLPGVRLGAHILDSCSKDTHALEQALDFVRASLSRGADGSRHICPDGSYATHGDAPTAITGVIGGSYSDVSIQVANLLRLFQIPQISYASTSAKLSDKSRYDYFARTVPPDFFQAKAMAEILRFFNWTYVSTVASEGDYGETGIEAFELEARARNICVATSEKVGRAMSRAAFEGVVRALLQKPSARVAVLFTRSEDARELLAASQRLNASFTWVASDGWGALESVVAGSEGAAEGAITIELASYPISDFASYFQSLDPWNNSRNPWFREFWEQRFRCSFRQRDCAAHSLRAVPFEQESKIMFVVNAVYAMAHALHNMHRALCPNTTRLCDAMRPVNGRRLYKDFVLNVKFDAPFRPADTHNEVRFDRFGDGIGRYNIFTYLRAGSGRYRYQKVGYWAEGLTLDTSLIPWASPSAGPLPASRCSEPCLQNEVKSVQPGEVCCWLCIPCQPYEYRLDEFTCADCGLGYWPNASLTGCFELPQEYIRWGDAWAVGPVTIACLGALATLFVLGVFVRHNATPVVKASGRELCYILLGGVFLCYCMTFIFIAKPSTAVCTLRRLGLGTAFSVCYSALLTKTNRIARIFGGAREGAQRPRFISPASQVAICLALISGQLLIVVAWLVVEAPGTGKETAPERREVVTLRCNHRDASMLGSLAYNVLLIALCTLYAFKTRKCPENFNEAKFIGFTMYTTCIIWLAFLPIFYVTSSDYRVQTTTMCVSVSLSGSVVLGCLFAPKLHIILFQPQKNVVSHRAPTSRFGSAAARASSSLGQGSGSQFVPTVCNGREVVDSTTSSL

Compound `N#Cc1c(N2CCN(Cc3ccc(F)cc3)CC2)ccn(Cc2ccc(OC(F)(F)F)cc2)c1=O` [2-044] gave a melting point of 156 °C. Also, in data set [1], the EC50 was 1580 nM.

On to `CC(C)CCn1ccc(N2CCC(Nc3ccccc3)C(C)C2)c(C#N)c1=O` (stereo not shown) [4-043], for which the melting point came out at 138 °C. Besides, the EC50 in data set [1] is 501 nM.

The compound `CC(C)CCn1ccc(N2CCc3c([nH]c4ccccc34)C2)c(C#N)c1=O` [5-039] gave a melting point of 276 °C. Also, the EC50 in data set [1] is 79.4 nM.

`N#Cc1c(-c2ccc(N3CCOCC3)cc2)ccn(Cc2ccc(OC(F)(F)F)cc2)c1=O` [1-032] registered a melting point of 190 °C. The EC50 in data set [1] is 794 nM.

On to `CC(C)CCn1ccc(-c2ccc(OC(F)(F)F)cc2)c(C#N)c1=O` [1-120], for which the melting point came out at 122 °C. Further, the EC50 in data set [1] is 501 nM.

As for `CCCCn1ccc(-c2ccc3c(c2)nc(C)n3Cc2ccccn2)c(C#N)c1=O` [5-002], the melting point is 164.7 °C. In addition, the EC50 in data set [1] was 6310 nM.

Turning to `CCCCn1ccc(N2CCC(Oc3cccnc3)CC2)c(C#N)c1=O` [4-004], the melting point stood at 188 °C. In addition, the EC50 in data set [1] is 3160 nM.

On to `CC(C)CCn1ccc(OCCN(C)Cc2cccc(F)c2)c(C#N)c1=O` [1-293], for which the melting point is 209 °C. For the same compound, the EC50 in data set [1] is 2510 nM.

Take `CC(C)CCn1ccc(C(=O)N2CCN(c3ncccn3)CC2)c(C#N)c1=O` [2-037]: the melting point amounted to 223 °C. Further, the EC50 in data set [1] is 1000 nM.

`CN(Cc1cccc(F)c1)C1CCN(c2ccn(Cc3ccc(F)cc3)c(=O)c2C#N)CC1` [4-057]: the melting point came to 242 °C. Also, in data set [1], the EC50 was 1000 nM.

For `CC(C)CCn1ccc(-c2ccc(OCC3CC3)c(Cl)c2)c(C#N)c1=O` [1-134], the melting point is 294 °C. Also, the EC50 in data set [1] was 79.4 nM.

`CC(C)CCn1ccc(-c2cccc(F)c2)c(C#N)c1=O` [1-088] showed a melting point of 161 °C. The EC50 in data set [1] is 2510 nM.

As for `N#Cc1c(-c2ccc(OCCN3CCOCC3)cc2)ccn(Cc2ccc(OC(F)(F)F)cc2)c1=O` [1-037], the melting point is 184 °C. Further, the EC50 in data set [1] was 2000 nM.

Compound `COc1ccc(CCc2ccn(CCC(C)C)c(=O)c2C#N)cc1` [1-265] registered a melting point of 88 °C. Also, the EC50 in data set [1] is 1260 nM.

The compound `COC(=O)CCc1ccc(-c2ccn(CCC(C)C)c(=O)c2C#N)cc1` [1-239] returned a melting point of 120 °C. The EC50 in data set [1] was 794 nM.

`N#Cc1c(-c2ccccc2)ccn(CC2CCCCC2)c1=O` [1-009] registered a melting point of 149 °C. In addition, the EC50 in data set [1] was 1580 nM.

`N#Cc1c(-c2cccs2)ccn(Cc2ccc(C(F)(F)F)nc2)c1=O` [1-046] showed a melting point of 185 °C. The EC50 in data set [1] is 1260 nM.

The compound `CC(C)CCn1ccc(-c2ccc(OCc3ccccc3)c(Cl)c2)c(C#N)c1=O` [1-150] had a melting point of 177 °C. Moreover, the EC50 in data set [1] is 79.4 nM.

On to `CC(C)CCn1ccc(N2CCC(N(C)Cc3cccc(F)c3)C2)c(C#N)c1=O` (stereo not shown) [5-006], for which the melting point amounted to 100 °C. Further, in data set [1], the EC50 is 3980 nM.

The compound `Cc1nc(COc2ccc(-c3ccn(CCC(C)C)c(=O)c3C#N)cc2)cs1` [1-169] registered a melting point of 144 °C. Further, the EC50 in data set [1] is 501 nM.

`CC(C)CCn1ccc(NC2CCN(c3ccc(C(F)(F)F)cn3)CC2)c(C#N)c1=O` [3-004] had a melting point of 188 °C. For the same compound, the EC50 in data set [1] is 251 nM.

On to `CC(C)CCn1ccc(-c2ccc(N3CC(C)OC(C)C3)cc2)c(C#N)c1=O` (stereo not shown) [1-227], for which the melting point is 162 °C. Further, the EC50 in data set [1] is 501 nM.

As for `CC(C)CCn1ccc(-c2ccc3c(c2)OCO3)c(C#N)c1=O` [1-252], the melting point is 120 to 121 °C. Moreover, the EC50 in data set [1] was 6310 nM.

`COc1ccc(-c2ccn(CCC(C)C)c(=O)c2C#N)cc1F` [1-114, 3-cyano-4-(3-fluoro-4-methoxyphenyl)-1-(3-methylbutyl)pyridine-2(1)-one] returned a melting point of 133 °C. Moreover, in data set [1], the EC50 was 1000 nM.

The compound `CC(C)CCn1ccc(-c2ccc(O)cc2)c(C#N)c1=O` [1-097] gave a melting point of 210 °C. In addition, in data set [1], the EC50 is 1580 nM.

Consider `CC(C)CCn1ccc(-c2ccc(CN(C)Cc3ccccn3)cc2)c(C#N)c1=O` [1-212], for which the melting point is 294 °C. Also, the EC50 in data set [1] is 1000 nM.

`CC(C)CCn1ccc(-c2ccccc2F)c(C#N)c1=O` [1-087] had a melting point of 125 °C. In addition, in data set [1], the EC50 was 3980 nM.

On to `CC(C)CCn1ccc(-c2ccc(NCC#N)cc2)c(C#N)c1=O` [1-186], for which the melting point was determined as 269 °C. The EC50 in data set [1] was 794 nM.

In the case of `CC(C)CCn1ccc(OCc2cccc(OC(F)(F)F)c2)c(C#N)c1=O` [1-279], the melting point turned out to be 116 °C. The EC50 in data set [1] was 398 nM.

On to `COc1ccc(COc2ccc(-c3ccn(CCC(C)C)c(=O)c3C#N)cc2)cc1` [1-145], for which the melting point is 212 °C. Besides, the EC50 in data set [1] is 39.8 nM.

In turn, `CC(C)CCn1ccc(-c2ccc(OC(C)C)cc2)c(C#N)c1=O` [1-111] yielded a melting point of 129 °C. Also, the EC50 in data set [1] is 316 nM.

In turn, `CCCCn1ccc(-c2ccc(N3CCCCC3)cc2)c(C#N)c1=O` [1-058] had a melting point of 122 °C. Further, the EC50 in data set [1] was 316 nM.

Consider `CC(=O)c1ccc(-c2ccn(CCC(C)C)c(=O)c2C#N)cc1` [1-238], for which the melting point worked out at 130 °C. The EC50 in data set [1] is 3160 nM.

In turn, `CC(C)CCn1ccc(-c2ccc(OCc3cccnc3)cc2)c(C#N)c1=O` [1-158] yielded a melting point of 142 °C. In addition, in data set [1], the EC50 was 501 nM.

Compound `CC(C)CCn1ccc(-c2ccc(OCc3cccc(C#N)c3)cc2)c(C#N)c1=O` [1-151] came in with a melting point of 154 °C. Besides, the EC50 in data set [1] is 39.8 nM.

`CC(C)CCn1ccc(OCc2ccc(CN3CCOCC3)cc2)c(C#N)c1=O` [1-292] had a melting point of 154 °C. Besides, in data set [1], the EC50 was 1260 nM.

`CC(C)Cn1ccc(-c2ccc(Oc3ccncc3)cc2)c(C#N)c1=O` [1-078]: the melting point was found to be 170 °C. For the same compound, the EC50 in data set [1] was 3980 nM.

`CC(C)CCn1ccc(-c2ccc(NCc3ccncc3)cc2)c(C#N)c1=O` [1-210]: the melting point worked out at 73 °C. For the same compound, the EC50 in data set [1] is 1000 nM.

Turning to `CC(C)CCn1ccc(-c2ccc(NCCC3(C)OCCO3)cc2)c(C#N)c1=O` [1-192], the melting point is 119 °C. Also, in data set [1], the EC50 was 501 nM.

`CC1CCC(Cn2ccc(-c3ccc(OC(F)(F)F)cc3)c(C#N)c2=O)CC1` (stereo not shown) [1-014] showed a melting point of 143 °C. Besides, the EC50 in data set [1] was 100 nM.

`CCCCn1ccc(N2CCC(c3ccnc(C)c3)CC2)c(C#N)c1=O` [4-003] returned a melting point of 132 °C. Further, in data set [1], the EC50 is 3980 nM.

As for `Cc1ccc(-c2ccn(CCC(C)C)c(=O)c2C#N)cc1` [1-085], the melting point stood at 102 °C. Further, the EC50 in data set [1] is 794 nM.

Compound `CCCCn1ccc(Nc2ccc(Oc3cccnc3)cc2)c(C#N)c1=O` [1-296] returned a melting point of 151 °C. Also, the EC50 in data set [1] is 1580 nM.

Regarding `CC(C)CCn1ccc(-c2ccc(CC(=O)N(C)C)cc2)c(C#N)c1=O` [1-244], the melting point was determined as 122 °C. The EC50 in data set [1] was 6310 nM.

As for `CC(C)CCn1ccc(N2CCC(c3coc4cc(F)ccc34)CC2)c(C#N)c1=O` [4-039], the melting point was 123 °C. In addition, the EC50 in data set [1] was 39.8 nM.

Consider `CC(C)CCn1ccc(-c2cccs2)c(C#N)c1=O` [1-082], for which the melting point is 123 °C. For the same compound, the EC50 in data set [1] is 2000 nM.

Compound `CC(C)CCn1ccc(-c2ccc(C(=O)N(C)Cc3ccccc3)cc2)c(C#N)c1=O` [1-245] showed a melting point of 135 to 140 °C. The EC50 in data set [1] was 794 nM.

`C[C@@H]1CN(Cc2ccc(-c3ccn(Cc4ccc(OC(F)(F)F)cc4)c(=O)c3C#N)cc2)C[C@H](C)O1` [1-035] had a melting point of 136 °C. Further, the EC50 in data set [1] is 794 nM.

With `CC(C)CCn1ccc(-c2ccc(OCC(F)F)c(Cl)c2)c(C#N)c1=O` [1-122], the melting point is 131 °C. Moreover, the EC50 in data set [1] was 1000 nM.

As to `CC(C)CCn1ccc(-c2ccc(C(=O)N3CCN(Cc4ccc(OC(F)(F)F)c(Cl)c4)CC3)cc2)c(C#N)c1=O` [1-247], the melting point was found to be 217 °C. The EC50 in data set [1] is 398 nM.

For `COc1cccc(-c2ccn(CCC(C)C)c(=O)c2C#N)c1` [1-101], the melting point was 96 °C. Also, in data set [1], the “GTPgS - hR2 PAM pEC50” value came out at 5.5.

Take `CC(C)CCn1ccc(N2CCC(CCOc3ccc(F)cc3)CC2)c(C#N)c1=O` [4-019]: the melting point turned out to be 100 °C. For the same compound, the EC50 in data set [1] is 79.4 nM.

Compound `COc1cccc(COc2ccc(-c3ccn(CCC(C)C)c(=O)c3C#N)cc2)c1` [1-144] yielded a melting point of 100 °C. Besides, the EC50 in data set [1] is 63.1 nM.

In turn, `CC(C)CCn1ccc(N2CCc3c(n(C)c4ccc(F)cc34)C2)c(C#N)c1=O` [5-040] had a melting point of 111 °C. The EC50 in data set [1] was 316 nM.

For `COCc1ccc(-c2ccn(CCC(C)C)c(=O)c2C#N)cc1` [1-103, 3-cyano-4-(4-methoxymethylphenyl)-1-(3-methylbutyl)pyridine-2(1H)-one], the melting point worked out at 91 °C. Also, the EC50 in data set [1] is 2000 nM.

Consider `CCCC(C)n1ccc(-c2cccs2)c(C#N)c1=O` (stereo not shown) [1-079], for which the melting point was 103 °C. Also, in data set [1], the EC50 was 5010 nM.

Broadly, the melting point is the temperature, or range, at which the solid turns liquid.
